# Source: PubChem BioAssay (NCI)
# “And” between values parts separate entries of the source, which are not always exact repeats. Identical values can stand only once.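 These data come from cells grown in 96-well plates and exposed to compound for 48 hours at five concentrations. Here, GI50 denotes the concentration required for 50% inhibition of growth. At the TGI there is no net growth.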
# Tests used:
# Test in all cases: growth of human tumour cells (NCI), 48 h
# IGROV1 ovarian = test system: IGROV1 ovarian
# A498 renal = test system: A498 renal
# NCI/ADR-RES ovarian = test system: NCI/ADR-RES ovarian
# RXF 393 renal = test system: RXF 393 renal
# ACHN renal = test system: ACHN renal
# HL-60(TB) leukemia = test system: HL-60(TB) leukemia
# CCRF-CEM leukemia = test system: CCRF-CEM leukemia
# K-562 leukemia = test system: K-562 leukemia
# MOLT-4 leukemia = test system: MOLT-4 leukemia
# U251 CNS = test system: U251 CNS
SMILES,GI50 (IGROV1 ovarian),TGI (IGROV1 ovarian),GI50 (A498 renal),TGI (A498 renal),GI50 (NCI/ADR-RES ovarian),TGI (NCI/ADR-RES ovarian),GI50 (RXF 393 renal),TGI (RXF 393 renal),GI50 (ACHN renal),TGI (ACHN renal),GI50 (HL-60(TB) leukemia),TGI (HL-60(TB) leukemia),GI50 (CCRF-CEM leukemia),TGI (CCRF-CEM leukemia),GI50 (K-562 leukemia),TGI (K-562 leukemia),GI50 (MOLT-4 leukemia),TGI (MOLT-4 leukemia),GI50 (U251 CNS),TGI (U251 CNS)
O=c1cc(N/N=C/c2ccc(F)cc2)c2cc(Cl)ccc2[nH]1,18.5 µM,> 100 µM,14.8 µM,92.7 µM,23.5 µM,> 100 µM,23.7 µM,> 100 µM,17.2 µM,72.1 µM,18.8 µM,50.9 µM,12 µM,> 100 µM,13.2 µM,93.2 µM,4.07 µM,> 100 µM,21.1 µM,98.4 µM
CC1=Nc2ccccc2/C1=C\c1c(C)[nH]c2ccccc12,–,25.4 µM,–,38 µM,–,38.3 µM,–,33.2 µM,–,29.5 µM,–,50.2 µM,–,> 100 µM,–,> 100 µM,–,40.2 µM,–,33.3 µM
CC(C)=CCC(OC(=O)C=C(C)C)C1=CC(=O)c2c(O)ccc(O)c2C1=O (configuration not stated),–,4.42 µM,20 µM,39 µM and 5.39 µM,3.68 µM,29.5 µM and 3.16 µM,–,0.533 µM and 0.467 µM,0.605 µM,2.53 µM,–,1.09 µM and 0.79 µM,0.0241 µM,–,0.0709 µM,1.13 µM and 1.35 µM,0.182 µM and 0.0424 µM,1.29 µM and 1.42 µM,1.71 µM,3.61 µM and 9.1 µM
C=CC(=O)Nc1cc(N2CCN(CC)CC2)ccc1Nc1cc(N(C)C(=O)Nc2c(Cl)c(OC)cc(OC)c2Cl)ncn1,2.58 µM,7.35 µM,2.18 µM,8.53 µM,20.5 µM,70.5 µM,2.98 µM,9.76 µM,11.5 µM,23.8 µM,4.91 µM,25.3 µM,3.02 µM,11.2 µM,–,–,3.01 µM,13.4 µM,–,–
O=C(Oc1ccc(CO[N+](=O)[O-])cc1)c1ccccc1,0.203 µM,0.411 µM,1.07 µM,2.26 µM,0.195 µM,0.434 µM,0.165 µM,0.319 µM,0.113 µM,0.236 µM,0.0514 µM,0.267 µM,0.0324 µM,0.173 µM,0.0708 µM,0.325 µM,–,–,0.145 µM,0.276 µM
Cc1cc(O)c(C2=NN(c3ccc(S(N)(=O)=O)cc3)C(c3ccc(Cl)cc3)C2)c(C)c1Cl (configuration not stated),6.19 µM,22.3 µM,6.97 µM,19.3 µM,4.63 µM,17 µM,5.83 µM,21.1 µM,3.7 µM,14.4 µM,7.84 µM,20.8 µM,3.64 µM,13.5 µM,2.24 µM,11.5 µM,1.94 µM,7.25 µM,3.34 µM,13.5 µM
C=C1C(=O)OC2CC(C)C3CC(O)OC(OCC)C3(C)CC12 (configuration not stated),–,48.1 µM,–,> 69.1 µM,–,39.2 µM,–,28.3 µM,–,39.5 µM,–,> 30 µM,–,> 100 µM,–,> 57.4 µM,–,56.4 µM,–,33.8 µM
Cc1cc(N=C2C=C(Br)C(=O)C(Br)=C2)cc(CN(CC(=O)O)CC(=O)O)c1O,–,> 100 µM,–,> 100 µM,–,> 100 µM,–,> 100 µM,–,> 100 µM,–,> 100 µM,–,> 100 µM,–,> 100 µM,–,> 100 µM,–,> 100 µM
OCc1ccc(-c2cscc2-c2ccc(CO)o2)o1,0.576 µM,6.47 µM,0.0156 µM,0.0381 µM,32.9 µM,> 100 µM,> 20.8 µM,> 89.5 µM,> 100 µM,> 100 µM,> 100 µM,> 100 µM,> 100 µM,> 100 µM,7.02 µM,> 100 µM,> 100 µM,> 100 µM,44.1 µM,> 100 µM
C1=C2CCCC3=Cc4ccccc4OC23Oc2ccccc21,5.36 µM,> 100 µM,2.76 µM,13.1 µM,3.18 µM,55.7 µM,2.85 µM,8.77 µM,5.06 µM,> 100 µM,3.24 µM,> 100 µM,3.47 µM,25.9 µM,3.54 µM,> 100 µM,3.66 µM,> 100 µM,4.54 µM,> 100 µM
C#Cc1nc2ccccc2c(=O)[nH]1,0.585 µM,1.7 µM,1.58 µM,3.26 µM,0.927 µM,8.19 µM,0.249 µM,0.871 µM,0.336 µM,1.32 µM,0.26 µM,0.807 µM,0.237 µM,0.721 µM,0.544 µM,20.4 µM,0.316 µM,0.994 µM,1.66 µM,4.28 µM
c1cncc(CNCc2cccnc2)c1,–,> 100 µM,–,> 100 µM,–,> 100 µM,–,> 100 µM,–,> 100 µM,–,> 100 µM,–,> 100 µM,–,> 100 µM,–,> 100 µM,–,> 100 µM
CCN(c1cc(-c2ccc(CN3CCOCC3)cc2)cc(C(=O)NCc2c(C)cc(C)[nH]c2=O)c1C)C1CCOCC1,30.3 µM,> 63 µM,9.79 µM,37.2 µM,36.2 µM,> 100 µM,16.5 µM,44.7 µM,26 µM,74.9 µM,17.5 µM,56.2 µM,30.6 µM,> 85.4 µM,32.6 µM,> 100 µM,21.6 µM,93.8 µM,26 µM,> 81 µM
Cn1cc(-c2ccc3nnc(Sc4ccc5ncccc5c4)n3n2)cn1,> 88.6 µM,> 100 µM,> 23 µM,> 93.1 µM,> 100 µM,> 100 µM,26.6 µM,> 100 µM,54.1 µM,> 100 µM,> 100 µM,> 100 µM,51.6 µM,> 100 µM,38.4 µM,> 100 µM,> 100 µM,> 100 µM,28.5 µM,> 100 µM
COC(=O)C1C(O)C(C)C(O)C(C)C=C(C)C2=C3C(=C(C)C(=O)c4c(O)c(c(C)c(OC(C)=O)c43)NC(=O)C(C)=C/C=C\C(C)C(O)C(C)C1O)OCO2 (configuration not stated),–,> 100 µM,–,99.4 µM,–,> 100 µM,–,89.8 µM,–,> 100 µM,–,41.6 µM,–,67 µM,–,47.5 µM,–,51.4 µM,–,> 100 µM
CN(C)CCSS(=O)(=O)O,–,> 100 µM,–,> 100 µM,–,> 100 µM,–,> 100 µM,–,> 100 µM,–,> 100 µM,–,> 100 µM,–,> 100 µM,–,> 100 µM,–,> 100 µM
C1CC2CN(CCCN3CCOCC3)C(C1)O2 (configuration not stated),–,> 100 µM,–,> 100 µM,–,> 100 µM,–,> 100 µM,–,> 100 µM,–,> 100 µM,–,–,–,> 100 µM,–,> 100 µM,–,> 100 µM
S=c1nc(N/N=C/c2ccco2)c2cn[nH]c2[nH]1,46.9 µM,> 100 µM,3.23 µM,22.5 µM,> 100 µM,> 100 µM,> 100 µM,> 100 µM,> 100 µM,> 100 µM,77.1 µM,> 100 µM,2.2 µM,> 100 µM,39.9 µM,> 100 µM,–,–,> 100 µM,> 100 µM
COC(=O)COc1ccc(/C=C2/N=C(c3ccccc3)N(c3c(C)n(C)n(-c4ccccc4)c3=O)C2=O)cc1,23.6 µM,42.3 µM,26.1 µM,44.1 µM,54.8 µM,> 100 µM,19.4 µM,36.5 µM,17.6 µM,31.4 µM,26.2 µM,67.2 µM,13.2 µM,50.2 µM,30.4 µM,> 100 µM,23 µM,59.8 µM,67.6 µM,> 100 µM
O=c1/c(=C\c2ccc(F)cc2)sc2n1C(c1ccc(F)cc1)C1=C(N=2)c2ccc3ccccc3c2OCC1 (configuration not stated),> 100 µM,> 100 µM,> 100 µM,> 100 µM,> 100 µM,> 100 µM,> 100 µM,> 100 µM,> 100 µM,> 100 µM,> 100 µM,> 100 µM,> 100 µM,> 100 µM,> 29.5 µM,> 100 µM,> 100 µM,> 100 µM,> 100 µM,> 100 µM
COc1ccc(-c2nc(-c3nc4ccc(F)cc4[nH]3)c3ccccn23)cc1,6.63 µM,47.2 µM,3.83 µM,31.8 µM,6.5 µM,36.5 µM,6.05 µM,45.3 µM,4.28 µM,25.9 µM,39.8 µM,> 100 µM,4.39 µM,> 100 µM,14 µM,> 100 µM,3.83 µM,> 100 µM,13.6 µM,51.3 µM
COc1cc2c(cc1OC)C(=O)/C(=C/c1cc(-c3ccc4c(c3)OCO4)n[nH]1)C2,1.89 µM,4.58 µM,1.33 µM,2.83 µM,2.25 µM,6.87 µM,1.54 µM,3.19 µM,1.73 µM,3.23 µM,2.07 µM,5.59 µM,1.14 µM,3.61 µM,1.59 µM,> 100 µM,2.57 µM,6.97 µM,1.09 µM,2.31 µM
O=C(Nn1c(-c2ccccc2)nc2ccccc2c1=O)c1ccccc1O,–,> 100 µM,–,> 100 µM,–,> 100 µM,–,> 100 µM,–,> 100 µM,–,> 100 µM,–,> 100 µM,–,> 100 µM,–,> 100 µM,–,> 100 µM
Cc1c2c(c(C)c3c4c(oc13)CCCC4)C=NCC2,–,26.5 µM,–,31.9 µM,–,31.2 µM,–,15.9 µM,–,37.7 µM,–,43.4 µM,–,29.4 µM,–,37.4 µM,–,45.1 µM,–,26.8 µM
COc1ccc(C(O)c2cc3c(N)c(C(=O)Nc4cccc(Cl)c4)sc3nc2C)cc1 (configuration not stated),2.52 µM,> 56 µM,0.659 µM,2.38 µM,1.11 µM,> 36.1 µM,0.31 µM,1.76 µM,2.3 µM,> 42.4 µM,0.868 µM,2.78 µM,1.13 µM,> 100 µM,1.03 µM,> 37.5 µM,1.54 µM,> 43.3 µM,1.14 µM,> 37.8 µM
Cc1nc2ccc(NC(=O)CCNC(=O)CCCc3ccc(CC(C(=O)O)C(=O)O)cc3)cc2s1,> 100 µM,> 100 µM,> 100 µM,> 100 µM,> 100 µM,> 100 µM,> 100 µM,> 100 µM,> 100 µM,> 100 µM,> 100 µM,> 100 µM,> 100 µM,> 100 µM,> 100 µM,> 100 µM,> 100 µM,> 100 µM,> 100 µM,> 100 µM
C1CC[N-]CC1.CC(=N\O)/C(C)=N/O.CC(=N\O)/C(C)=N/O.OC1[CH-]CCCC1.[Co+2],44.9 µM,> 100 µM,> 100 µM,> 100 µM,> 100 µM,> 100 µM,19.2 µM,62.4 µM,76.3 µM,> 100 µM,21.7 µM,72.5 µM,–,–,33.4 µM,> 100 µM,26.4 µM,99.1 µM,31 µM,> 100 µM
Cc1ccc(S(=O)(=O)c2nc(-c3ccccc3)oc2S(C)=O)cc1 (configuration not stated),–,–,4.23 µM,13.6 µM,2.14 µM,4.89 µM,1.46 µM,2.87 µM,1.52 µM,2.88 µM,1.52 µM,4.71 µM,2.77 µM,8.08 µM,1.4 µM,4.77 µM,2.12 µM,5.5 µM,1.7 µM,3.17 µM
O=c1[nH]c2ccccc2n1CCCN1CCC(n2c(=O)[nH]c3cc(Cl)ccc32)CC1,–,41.3 µM,–,42.9 µM,–,60.8 µM,–,29.9 µM,–,32.9 µM,–,37.3 µM,–,> 100 µM,–,65 µM,–,45.1 µM,–,–
